# Test system: not listed separately
# Assay: Acute toxicity test, oral administration to rats
# Details: rat, in vivo, orally administered
# Description: The acute toxicity was determined by an acute toxicity test wherein each sample compound was orally administered to rats. The results (LD50 values) thus obtained are listed below: […]
row,SMILES,LD50
1,"O=C1NC(=O)C(Cc2cccc3c2ccn3Cc2ccc(F)cc2)S1 (stereo not drawn) [Example 52, 5-[1-(4-fluorobenzyl)indol-4-yl]-methyl-2,4-thiazolidinedione]",≥ 2000 mg/kg
2,"O=C1NC(=O)C(Cc2cccc3c2ccn3Cc2ccccc2)S1 (stereo not drawn) [Example 3, 5-(1-benzylindol-4-yl)methyl-2,4-thiazolidinedione]",≥ 2000 mg/kg

# Test system: 3T3-L1 cells
# Assay: Glucose-uptake test (2-DOG uptake) in 3T3-L1 cells
# Type: cell-based
# Details: Mus musculus, 3T3-L1, 24 h, 50 μg/ml, cpm divided by amount of proteins, read-out: 2-DOG Uptake (%) at a concentration of 50 μg/ml
# Description: Glucose-uptake tests as a means for screening compounds for the effect of reducing the blood sugar level were carried out according to the following procedures. 1) Cell: The following cells were used. 3T3-L1 (purchased from Dainippon Pharmaceutical Co. Ltd.) 2) Reagents: The following reagents were used. DMEM (GIBCO); FBS (GIBCO); […] DMSO: dimethylsulfoxide (Wako Pure Chemical Co., Ltd.); ACS2 (Amersham); urea (Wako Pure Chemical Co., Ltd.); protein-determining kit (Bio Rad Code No.). 3) Instrument: The following instrument was used in the test. 24-well plate (Falcon) 3T3-L1 cells were dispersed in a 10% FBS-containing DME medium in a cell concentration of 10000 cells/ml, the resulting cell suspension was dispensed into a 24-well plate in an amount of 1 ml per well and the cells were cultivated in a 5% CO2 -incubator at 37° C. for 5 days. After soaking up the medium in the wells, the plate was washed once with PBS in an amount of 2 ml/well. […] The cells were cultivated in a sample compound-containing medium at 37° C. for 24 hours in a 5%-CO2 -incubator. After the cultivation, the medium was soaked up and the plate was washed three times with 2 ml/well each of PBS. […] After washing with 2 ml/well of PBS, the PBS was sufficiently soaked up. […] The lysate was also inspected for the amount of proteins using 0.2 ml out of the rest of the lysate, according to the microassay method using a protein-determining kit.
row,SMILES,activity at 50 µg/mL
1,"O=C1NC(=O)C(Cc2cccc3c2ccn3Cc2ccc(F)cc2)S1 (stereo not drawn) [Example 52, 5-[1-(4-fluorobenzyl)indol-4-yl]-methyl-2,4-thiazolidinedione]",280%
2,"COc1ccccc1Cn1ccc2c(CC3SC(=O)NC3=O)cccc21 (stereo not drawn) [Example 86, 5-[1-(2-methoxybenzyl)indol-4-yl]methyl-2,4-thiazolidinedione]",161%
3,"O=C1NC(=O)C(Cc2cccc3c2ccn3Cc2cc(F)cc(F)c2)S1 (stereo not drawn) [Example 71, 5-[1-(3,5-difluorobenzyl)indol-4-yl]-methyl-2,4-thiazolidinedione]",250%
4,"COC(=O)c1ccc(Cn2ccc3c(CC4SC(=O)NC4=O)cccc32)cc1 (stereo not drawn) [Example 9, 5-[1-(4-methoxycarbonylbenzyl)indol-4-yl]methyl-2,4-thiazolidinedione]",180%
5,"CCCCCCn1ccc2c(C=C3SC(=O)NC3=O)cccc21 [Example 155, 5-(1-hexylindol-4-yl)methylene-2,4-thiazolidinedione]",233%
6,"O=C1NC(=O)C(Cc2cccc3c2ccn3Cc2ccccc2)S1 (stereo not drawn) [Example 3, 5-(1-benzylindol-4-yl)methyl-2,4-thiazolidinedione]",217%
7,"O=C1NC(=O)C(Cc2cccc3c2ccn3C(=O)Cc2ccccc2)S1 (stereo not drawn) [Example 13, 5-(1-phenylacetylindol-4-yl)methyl-2,4-thiazolidinedione]",150%
8,"Nc1ccc(Cn2cc(CC3SC(=O)NC3=O)c3ccccc32)cc1 (stereo not drawn) [Example 256, 5-[1-(4-aminobenzyl)indol-3-yl]methyl-2,4-thiazolidinedione]",172%
9,"Cc1cccc(Cn2cc(CC3SC(=O)NC3=O)c3ccccc32)c1 (stereo not drawn) [Example 281, 5-[1-(3-methylbenzyl)indol-3-yl]methyl-2,4-thiazolidinedione]",244%
10,"N#Cc1cccc(Cn2ccc3c(CC4SC(=O)NC4=O)cccc32)c1 (stereo not drawn) [Example 101, 5-[1-(3-cyanobenzyl)indol-4-yl]methyl-2,4-thiazolidinedione]",240%
11,"O=C1NC(=O)C(Cc2cn(Cc3ccccc3)c3ccccc23)S1 (stereo not drawn) [Example 288, 5-(1-benzylindol-3-yl)methyl-2,4-thiazolidinedione]",209%
12,"O=C1NC(=O)C(Cc2cccc3c2ccn3C(c2ccccc2)c2ccccc2)S1 (stereo not drawn) [Example 177, 5-[1-(benzhydryl)indol-4-yl]methyl-2,4-thiazolidinedione]",159%
13,"O=C1NC(=O)C(Cc2cn(Cc3cccc(F)c3)c3ccccc23)S1 (stereo not drawn) [Example 273, 5-[1-(3-fluorobenzyl)indol-3-yl]methyl-2,4-thiazolidinedione]",215%
14,"O=C1NC(=O)C(Cc2cccc3c2ccn3Cc2cc(F)ccc2F)S1 (stereo not drawn) [Example 62, 5-[1-(2,5-difluorobenzyl)indol-4-yl]-methyl-2,4-thiazolidinedione]",192%
15,"O=C1NC(=O)C(Cc2cccc3c2ccn3Cc2ccc(C(F)(F)F)cc2C(F)(F)F)S1 (stereo not drawn) [Example 83, 5-{1-[2,4-bis(trifluoromethyl)-benzyl]indol-4-yl}methyl-2,4-thiazolidine-dione]",199%
16,"O=C1NC(=O)C(Cc2cccc3c2ccn3Cc2ccc(C(F)(F)F)cc2)S1 (stereo not drawn) [Example 80, 5-[1-(4-trifluoromethylbenzyl)indol-4-yl]methyl-2,4-thiazolidinedione]",210%
17,"CC(c1ccccc1)n1ccc2c(C=C3SC(=O)NC3=O)cccc21 (stereo not drawn) [Example 173, 5-[1-(α-methylbenzyl)indol-4-yl]methylene-2,4-thiazolidinedione]",153%
18,"O=C1NC(=O)C(Cc2cn(Cc3ccc(C(F)(F)F)cc3)c3ccccc23)S1 (stereo not drawn) [Example 271, 5-{1-[4-(trifluoromethyl)benzyl]indol-3-yl}methyl-2,4-thiazolidinedione]",165%
19,"O=C1NC(=O)C(Cc2cccc3c2ccn3Cc2cccc(F)c2F)S1 (stereo not drawn) [Example 55, 5-[1-(2,3-difluorobenzyl)indol-4-yl]-methyl-2,4-thiazolidinedione]",180%
20,"CC#CCn1ccc2c(CC3SC(=O)NC3=O)cccc21 (stereo not drawn) [Example 168, 5-[1-(2-butynyl)indol-4-yl]methyl-2,4-thiazolidinedione]",172%
21,"CC(C)=CCCn1ccc2c(CC3SC(=O)NC3=O)cccc21 (stereo not drawn) [Example 165, 5-[1-(4-methyl-3-pentenyl)indol-4-yl]methyl-2,4-thiazolidinedione]",285%
22,"O=C1NC(=O)C(=Cc2cccc3c2ccn3Cc2ccncc2)S1 [Example 5, 5-[1-(4-picolyl)indol-4-yl]methylene-2,4-thiazolidinedione]",227%

# Reference: US5811439A, “Thiazolidinedione derivatives, method for preparing the derivatives and pharmaceutical compositions containing same” (Senga Pharmaceutical Laboratory Inc., priority 1995, dated 1998)
